# Results published in patent publication US20040166148A1, “Transdermal therapeutic delivery systems with a butenolide” (priority 2003, published 2004).
# Test: Storage stability of drug solutions: N-oxide content by ion pair reversed phase HPLC
# Type: physicochemical
# Details: solutions stored for 7 days at 40° C.; formulation employing levulinic acid
compound,measurement,value
CC(=O)CCC(=O)O [levulinic acid],N-oxide content of the formulation,below 0.06%
